{"source": "ChEMBL document CHEMBL1201862", "about": "“PubChem BioAssay data set” (2004)", "key": {"Protein skinhead-1": {"target": "T1, Protein skinhead-1 (Caenorhabditis elegans, UniProt P34707)", "T1 sequence (P34707 whole entry)": "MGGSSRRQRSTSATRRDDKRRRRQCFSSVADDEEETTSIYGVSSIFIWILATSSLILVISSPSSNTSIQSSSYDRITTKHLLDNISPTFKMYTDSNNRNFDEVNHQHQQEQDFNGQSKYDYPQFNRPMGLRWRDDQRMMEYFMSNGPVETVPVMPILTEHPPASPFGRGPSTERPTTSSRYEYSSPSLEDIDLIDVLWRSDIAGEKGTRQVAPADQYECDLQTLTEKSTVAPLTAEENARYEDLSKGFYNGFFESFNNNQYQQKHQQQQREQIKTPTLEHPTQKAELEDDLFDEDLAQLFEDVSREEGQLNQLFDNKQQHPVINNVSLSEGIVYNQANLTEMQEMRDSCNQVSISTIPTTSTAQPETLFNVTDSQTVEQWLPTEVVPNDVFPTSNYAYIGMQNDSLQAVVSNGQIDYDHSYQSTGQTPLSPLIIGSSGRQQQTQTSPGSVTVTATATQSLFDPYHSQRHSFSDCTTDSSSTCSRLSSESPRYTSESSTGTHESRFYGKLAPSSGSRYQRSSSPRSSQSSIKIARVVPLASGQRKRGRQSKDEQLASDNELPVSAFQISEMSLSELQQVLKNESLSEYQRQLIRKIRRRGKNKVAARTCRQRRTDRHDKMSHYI", "assay_type": "functional"}, "cells": {"test": "cells", "assay_type": "functional, cell-based"}, "[1]": {"target": "T2, Nuclear receptor subfamily 0 group B member 1 (Homo sapiens, UniProt P51843)", "T2 sequence (P51843 whole entry)": "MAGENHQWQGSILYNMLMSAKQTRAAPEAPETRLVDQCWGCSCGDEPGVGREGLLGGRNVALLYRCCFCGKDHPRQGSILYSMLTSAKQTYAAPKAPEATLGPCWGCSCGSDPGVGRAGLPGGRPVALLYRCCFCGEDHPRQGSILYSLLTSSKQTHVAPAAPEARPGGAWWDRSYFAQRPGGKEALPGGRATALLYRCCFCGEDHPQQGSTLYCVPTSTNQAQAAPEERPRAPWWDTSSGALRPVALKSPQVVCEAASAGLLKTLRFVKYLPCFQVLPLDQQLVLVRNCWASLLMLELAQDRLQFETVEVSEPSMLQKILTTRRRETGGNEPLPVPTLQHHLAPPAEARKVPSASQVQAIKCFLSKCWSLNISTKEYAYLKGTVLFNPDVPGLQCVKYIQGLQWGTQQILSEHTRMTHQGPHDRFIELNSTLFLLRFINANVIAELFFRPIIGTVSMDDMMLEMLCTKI", "assay_type": "functional, cell-based"}, "Paired box protein Pax-8": {"target": "Paired box protein Pax-8 (Homo sapiens, UniProt Q06710)", "sequence (Q06710 whole entry)": "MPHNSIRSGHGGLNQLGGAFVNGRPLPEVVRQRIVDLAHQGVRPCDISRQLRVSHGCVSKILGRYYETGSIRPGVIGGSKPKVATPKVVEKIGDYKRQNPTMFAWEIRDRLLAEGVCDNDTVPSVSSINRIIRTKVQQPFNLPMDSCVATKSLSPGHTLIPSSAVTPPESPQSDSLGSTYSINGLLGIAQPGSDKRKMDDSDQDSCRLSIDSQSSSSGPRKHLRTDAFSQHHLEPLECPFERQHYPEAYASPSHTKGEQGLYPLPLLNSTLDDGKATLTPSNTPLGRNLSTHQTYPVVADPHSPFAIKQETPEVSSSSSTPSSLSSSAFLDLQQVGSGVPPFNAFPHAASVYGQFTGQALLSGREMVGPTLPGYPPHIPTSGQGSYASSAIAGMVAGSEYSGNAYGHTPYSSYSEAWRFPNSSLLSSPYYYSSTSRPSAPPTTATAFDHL", "test": "PAX8 transcriptional activity inhibition in RMG-I – RMG-I cells, luciferase, cherry-pick, dose response (AID 687027);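 also: luciferase reporter driven by Pax8 target thyroperoxidase promoter measured by SteadyGlo luminescence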", "assay_type": "functional, cell-based"}, "[2]": {"test": "OVCAR-3 cell viability loss – plate reader, dry powder samples, PAX8 inhibitor project, dose response (AID 743044)", "assay_type": "functional, cell-based"}, "[3]": {"test": "OVCAR8 cell viability loss – plate reader, dry powder samples, PAX8 project, dose response (AID 743197)", "assay_type": "functional, cell-based", "details": "OVCAR-8"}, "[4]": {"test": "IGROV1 cell killing – plate reader, dry powder samples, PAX8 inhibitor project, dose response (AID 743043)", "assay_type": "functional, cell-based", "details": "IGROV-1"}, "NS3": {"target": "NS3 (Hepatitis C virus, UniProt A3EZJ3)", "sequence (A3EZJ3 whole entry)": "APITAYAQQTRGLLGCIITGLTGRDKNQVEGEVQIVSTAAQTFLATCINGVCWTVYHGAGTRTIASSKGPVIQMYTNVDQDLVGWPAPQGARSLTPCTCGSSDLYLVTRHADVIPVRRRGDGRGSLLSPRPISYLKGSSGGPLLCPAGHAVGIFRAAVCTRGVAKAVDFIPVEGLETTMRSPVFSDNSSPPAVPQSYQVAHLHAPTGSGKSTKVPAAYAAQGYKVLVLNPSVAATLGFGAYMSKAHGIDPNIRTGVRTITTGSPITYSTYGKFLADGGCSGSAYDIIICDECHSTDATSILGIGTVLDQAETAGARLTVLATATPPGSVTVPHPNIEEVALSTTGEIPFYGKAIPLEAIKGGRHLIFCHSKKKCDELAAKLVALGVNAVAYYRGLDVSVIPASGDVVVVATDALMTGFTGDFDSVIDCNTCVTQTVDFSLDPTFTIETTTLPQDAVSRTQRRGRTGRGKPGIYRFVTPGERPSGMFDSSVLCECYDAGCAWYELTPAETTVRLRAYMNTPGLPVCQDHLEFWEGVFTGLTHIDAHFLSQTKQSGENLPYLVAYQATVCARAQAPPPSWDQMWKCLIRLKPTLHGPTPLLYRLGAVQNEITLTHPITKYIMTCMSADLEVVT", "test": "NS3h DNA-binding inhibition IC50 – biochemical, fluorescence polarization, ChemBridge library, dose response (AID 743264)"}, "[5]": {"test": "A549 cell cytotoxicity, dose response, cytotoxicity control, plate reader, cherry-pick, antagonist series (AID 743412)", "assay_type": "functional, cell-based"}, "[6]": {"test": "toxicity toward HepG2 liver cells – cell-based, plate reader, cherry-pick, antagonist series, cytotoxicity control, dose response (AID 743416)", "assay_type": "functional"}, "[7]": {"test": "blockers of bursicon-stimulated LGR2 cAMP reporter – cell-based, HEK293, CRE-luciferase reporter, cherry pick, set 2, dose response (AID 743343);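 also: transfected cells were stimulated with diluted bursicon conditioned medium after compound addition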", "assay_type": "functional"}, "[8]": {"test": "blockade of melanocortin 4 receptor signaling – cell-based, plate reader, cherry pick, counter-screen for LGR2 antagonist project, dose response (AID 743444);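 also: transfected HEK 293 cells stimulated with alpha-MSH peptide; potency of inhibitors of the alpha-MSH evoked signal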", "assay_type": "functional"}, "[9]": {"test": "viability loss in HEK293 cells – cell-based, plate reader, cherry-picked samples, cytotoxicity control, dose response (AID 743446)", "assay_type": "functional"}, "[10]": {"test": "CTGF mRNA reduction in DLD1 cells – cell-based, DLD1 colon cancer, RT-qPCR, cherry-pick, dose response (AID 1053122)", "assay_type": "functional", "details": "Cancer cell lines"}, "[11]": {"test": "Dd2 parasite growth inhibition in erythrocytes – SYBR Green, dry powder samples, set 9, dose response (AID 1159568)", "assay_type": "functional, cell-based"}, "[12]": {"target": "Disintegrin and metalloproteinase domain-containing protein 17 (Homo sapiens, UniProt P78536)", "sequence (P78536 whole entry, the tested form may be a part)": "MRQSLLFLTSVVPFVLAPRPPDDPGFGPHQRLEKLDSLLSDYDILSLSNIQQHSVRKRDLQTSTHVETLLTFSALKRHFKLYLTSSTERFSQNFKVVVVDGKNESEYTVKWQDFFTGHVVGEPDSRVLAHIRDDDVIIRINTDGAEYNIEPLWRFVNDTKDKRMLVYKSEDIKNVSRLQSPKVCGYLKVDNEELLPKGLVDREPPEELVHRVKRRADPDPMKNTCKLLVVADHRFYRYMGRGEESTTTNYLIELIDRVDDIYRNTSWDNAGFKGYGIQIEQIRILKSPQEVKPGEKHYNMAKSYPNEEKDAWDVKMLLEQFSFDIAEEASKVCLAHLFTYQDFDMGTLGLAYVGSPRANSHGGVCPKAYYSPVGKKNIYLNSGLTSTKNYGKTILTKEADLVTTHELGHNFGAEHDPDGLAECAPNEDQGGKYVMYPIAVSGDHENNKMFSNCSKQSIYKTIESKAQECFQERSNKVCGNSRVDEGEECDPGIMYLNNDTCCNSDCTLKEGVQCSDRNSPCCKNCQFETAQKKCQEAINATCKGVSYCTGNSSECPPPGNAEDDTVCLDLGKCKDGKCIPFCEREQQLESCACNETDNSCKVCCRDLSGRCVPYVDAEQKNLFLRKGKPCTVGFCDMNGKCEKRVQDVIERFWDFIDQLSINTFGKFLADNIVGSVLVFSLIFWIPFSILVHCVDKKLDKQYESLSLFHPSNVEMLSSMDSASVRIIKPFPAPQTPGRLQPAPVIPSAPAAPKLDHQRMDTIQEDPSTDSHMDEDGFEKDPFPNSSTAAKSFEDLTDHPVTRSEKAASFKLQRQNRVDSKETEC", "test": "exosite inhibitors of ADAM17, dose response, biochemical (AID 743260)"}, "Vero": {"tested_on": "Vero", "test": "viability of Vero cells under compound – cytotoxicity control for flavivirus capping enzyme inhibitors (AID 588742)", "assay_type": "functional", "details": "Chlorocebus sabaeus"}, "Genome polyprotein": {"target": "Genome polyprotein (dengue virus type 2, UniProt P29990)", "sequence (P29990 2492-3391 limits assumed)": "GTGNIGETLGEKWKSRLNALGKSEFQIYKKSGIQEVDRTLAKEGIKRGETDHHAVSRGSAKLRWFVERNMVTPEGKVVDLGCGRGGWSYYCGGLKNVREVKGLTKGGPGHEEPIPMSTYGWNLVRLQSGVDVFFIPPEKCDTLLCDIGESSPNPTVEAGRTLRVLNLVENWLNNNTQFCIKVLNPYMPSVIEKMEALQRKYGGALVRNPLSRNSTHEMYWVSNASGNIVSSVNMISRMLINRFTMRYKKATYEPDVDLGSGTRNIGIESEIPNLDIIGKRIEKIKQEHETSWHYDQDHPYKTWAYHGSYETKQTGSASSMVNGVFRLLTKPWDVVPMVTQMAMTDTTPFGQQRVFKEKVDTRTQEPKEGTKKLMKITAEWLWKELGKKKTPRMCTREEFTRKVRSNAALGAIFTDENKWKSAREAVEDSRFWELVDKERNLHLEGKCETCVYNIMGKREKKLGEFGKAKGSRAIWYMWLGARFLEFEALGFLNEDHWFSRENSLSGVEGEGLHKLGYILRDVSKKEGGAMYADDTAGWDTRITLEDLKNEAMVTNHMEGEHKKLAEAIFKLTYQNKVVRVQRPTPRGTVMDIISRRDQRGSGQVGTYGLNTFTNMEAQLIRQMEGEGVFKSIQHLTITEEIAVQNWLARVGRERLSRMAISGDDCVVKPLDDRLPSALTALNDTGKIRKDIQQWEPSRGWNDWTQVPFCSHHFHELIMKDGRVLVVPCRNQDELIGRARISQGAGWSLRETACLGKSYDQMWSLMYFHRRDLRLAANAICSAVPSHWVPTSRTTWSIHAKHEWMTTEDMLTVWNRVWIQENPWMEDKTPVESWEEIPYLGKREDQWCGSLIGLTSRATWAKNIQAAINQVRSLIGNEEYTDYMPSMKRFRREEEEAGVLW", "test": "flavivirus cap methylation enzyme inhibition – biochemical, confirmation dose response, primary screen (AID 588689)", "assay_type": "functional"}, "[13]": {"target": "T3, Carboxy-terminal domain RNA polymerase II polypeptide A small phosphatase 1 (Homo sapiens, UniProt Q9GZU7)", "T3 sequence (Q9GZU7 whole entry)": "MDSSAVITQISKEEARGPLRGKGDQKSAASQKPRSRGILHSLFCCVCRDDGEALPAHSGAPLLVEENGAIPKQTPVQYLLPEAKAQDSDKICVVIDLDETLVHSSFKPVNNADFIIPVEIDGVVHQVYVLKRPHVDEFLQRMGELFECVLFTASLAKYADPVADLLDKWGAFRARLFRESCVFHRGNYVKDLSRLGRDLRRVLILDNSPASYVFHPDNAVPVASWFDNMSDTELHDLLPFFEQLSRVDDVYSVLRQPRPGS", "test": "CTDSP1 inhibitors, concentration-response, biochemical, absorbance readout, ultra-high-throughput screen actives (AID 540297)", "assay_type": "functional"}, "[14]": {"target": "T4, Polyadenylate-binding protein 1 (Homo sapiens, UniProt P11940)", "T4 sequence (P11940 whole entry)": "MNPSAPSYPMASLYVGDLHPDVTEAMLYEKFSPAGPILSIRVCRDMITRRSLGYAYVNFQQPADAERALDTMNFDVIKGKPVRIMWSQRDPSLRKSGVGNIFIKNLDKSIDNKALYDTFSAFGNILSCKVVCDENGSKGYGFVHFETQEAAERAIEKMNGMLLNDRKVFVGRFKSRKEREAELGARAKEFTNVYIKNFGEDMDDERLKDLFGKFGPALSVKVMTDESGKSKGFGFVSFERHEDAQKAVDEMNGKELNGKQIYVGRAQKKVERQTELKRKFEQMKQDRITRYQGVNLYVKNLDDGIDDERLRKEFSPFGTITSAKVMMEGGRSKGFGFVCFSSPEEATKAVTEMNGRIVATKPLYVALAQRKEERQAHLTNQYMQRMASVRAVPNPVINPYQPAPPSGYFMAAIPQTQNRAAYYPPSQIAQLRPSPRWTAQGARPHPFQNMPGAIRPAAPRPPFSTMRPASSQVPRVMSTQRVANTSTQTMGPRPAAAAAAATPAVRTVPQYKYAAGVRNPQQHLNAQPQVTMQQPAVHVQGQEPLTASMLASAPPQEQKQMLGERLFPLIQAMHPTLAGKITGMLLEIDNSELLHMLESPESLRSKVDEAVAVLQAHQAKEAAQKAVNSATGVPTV", "test": "MLLE binding blockers, Cy5 peptide tracer – biochemical, fluorescence polarization, Cy5-PAM2 peptide, secondary, miRNA deadenylation inhibitor project, dose response (AID 602260)", "assay_type": "functional", "details": "read-out: IC50_Mean"}, "[15]": {"target": "T4, Polyadenylate-binding protein 1", "test": "MLLE domain peptide-binding blockers, IC50 – biochemical, fluorescence polarization, FITC-PAM2 peptide, dose response (AID 602259)", "assay_type": "functional", "details": "read-out: IC50_Mean"}, "[16]": {"target": "Long-chain-fatty-acid--AMP ligase FadD28 (Mycobacterium tuberculosis, UniProt P9WQ59)", "sequence (P9WQ59 whole entry)": "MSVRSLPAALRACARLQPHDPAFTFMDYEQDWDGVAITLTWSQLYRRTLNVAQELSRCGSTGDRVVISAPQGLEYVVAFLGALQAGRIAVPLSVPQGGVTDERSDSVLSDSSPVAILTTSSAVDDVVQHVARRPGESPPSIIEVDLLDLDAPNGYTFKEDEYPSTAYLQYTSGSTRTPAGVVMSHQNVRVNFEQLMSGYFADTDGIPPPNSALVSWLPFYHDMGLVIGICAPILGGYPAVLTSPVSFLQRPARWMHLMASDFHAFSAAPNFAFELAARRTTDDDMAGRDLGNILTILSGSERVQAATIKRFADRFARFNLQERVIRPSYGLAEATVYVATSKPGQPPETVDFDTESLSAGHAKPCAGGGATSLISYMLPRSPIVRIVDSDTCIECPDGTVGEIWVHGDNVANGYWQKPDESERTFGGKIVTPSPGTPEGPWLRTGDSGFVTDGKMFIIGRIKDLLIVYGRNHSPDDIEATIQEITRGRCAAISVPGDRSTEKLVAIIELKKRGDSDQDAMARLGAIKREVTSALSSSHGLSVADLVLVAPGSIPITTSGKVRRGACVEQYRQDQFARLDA", "test": "Fluorescence polarization aasay to screen for inhibitors that compete for the binding of FadD28 to a bisubstrate Measured in Biochemical System Using Plate Reader - 2147-01_Inhibitor_Dose_CherryPick_Activity.", "assay_type": "functional, Mycobacterium tuberculosis H37Rv"}}, "note": "Calls of active or inactive are those of the source."}
{"smiles": "Clc1cccc(-c2nc3ccc(Br)cn3c2Cc2ccccc2)c1", "values": [{"measurement": "IC50", "setting": "Protein skinhead-1", "value": "> 100 µM (inactive)"}, {"measurement": "IC50", "setting": "cells", "value": "> 67.5 µM (inactive)"}, {"measurement": "IC50", "setting": "[1]", "value": "> 67.5 µM (inactive)"}]}
{"smiles": "C[C@@H]1CCCCO[C@H](CN(C)S(=O)(=O)c2ccccc2)[C@H](C)CN([C@@H](C)CO)C(=O)c2cc(NS(=O)(=O)c3ccc(Cl)cc3)ccc2O1", "values": [{"measurement": "AC50", "setting": "Paired box protein Pax-8", "value": "6.18 µM (active)"}, {"measurement": "AC50", "setting": "[2]", "value": "46.7 µM (active)"}, {"measurement": "AC50", "setting": "[3]", "value": "> 70 µM (inactive)"}]}
{"smiles": "O=C(C[C@@H]1CC[C@@H]2[C@H](COC[C@H](O)CN2Cc2ccc3c(c2)OCO3)O1)Nc1ccc(-c2ccccc2)cc1", "values": [{"measurement": "AC50", "setting": "Paired box protein Pax-8", "value": "9.11 µM (active)"}, {"measurement": "AC50", "setting": "[4]", "value": "41.8 µM (active)"}]}
{"smiles": "CC(=O)N(C)C1=C(Cl)C(=O)c2ccccc2C1=O", "values": [{"measurement": "IC50", "setting": "NS3", "value": "20.4 µM (inactive)"}]}
{"smiles": "O=C(Nc1ccc(Cl)cc1)c1ccc2c(c1)OCCO2", "values": [{"measurement": "IC50", "setting": "NS3", "value": "76.9 µM (active)"}]}
{"smiles": "C[C@H]1CN([C@@H](C)CO)C(=O)c2cc(NC(=O)Nc3ccc(C(F)(F)F)cc3)ccc2O[C@H]1CN(C)S(=O)(=O)c1cccs1", "values": [{"measurement": "AC50", "setting": "[5]", "value": "18 µM (active)"}, {"measurement": "AC50", "setting": "[6]", "value": "> 52 µM (inactive)"}, {"measurement": "AC50", "setting": "[7]", "value": "32.4 µM (active)"}, {"measurement": "AC50", "setting": "[8]", "value": "23.1 µM (active)"}, {"measurement": "AC50", "setting": "[9]", "value": "29.1 µM (active)"}]}
{"smiles": "C[C@H]1CN([C@@H](C)CO)C(=O)c2cc(C#Cc3ccccc3)cnc2O[C@H]1CN(C)C(=O)c1ccccc1", "values": [{"measurement": "AC50", "setting": "[10]", "value": "17.8 µM (active)"}, {"measurement": "AC50", "setting": "[11]", "value": "1.99 µM (active)"}]}
{"smiles": "C/C(=N\\N=C(/N)SC1CC(=O)N(c2ccccc2)C1=O)c1cccs1", "note": "(centres undefined)", "values": [{"measurement": "IC50", "setting": "[12]", "value": "> 69.5 µM (inactive)"}]}
{"smiles": "O=C(O)c1ccc2c(c1)C(=O)/C(=C/c1ccccc1)C2=O", "values": [{"measurement": "CC50", "setting": "Vero", "value": "> 40 µM (active)"}, {"measurement": "IC50", "setting": "Genome polyprotein", "value": "12.2 µM (active)"}, {"measurement": "IC50", "setting": "[13]", "value": "3.5 µM (active)"}, {"measurement": "IC50", "setting": "[14]", "value": "> 66 µM (inactive)"}, {"measurement": "IC50", "setting": "[15]", "value": "> 66 µM (inactive)"}, {"measurement": "AC50", "setting": "[16]", "value": "37.7 µM (active)"}]}
